These results are taken from ChEMBL document CHEMBL4339185 (Eur J Med Chem, 2019).

Values after ≈ are worked out from the molar mass of the structure shown.

For orientation: MIC means the lowest concentration that inhibits growth of the organism. Read a low MIC as a more susceptible organism. What is called logP is a log measure of how a compound divides between an organic and an aqueous phase. A higher logP goes with a more lipophilic compound. Usually solubility stands for the concentration that dissolves in the medium under given conditions. High values mean a readily soluble substance, low ones a poorly soluble substance.

For data set [1], the system named is Staphylococcus aureus. The experiment in a line: Antimicrobial activity against MLSB-resistant Staphylococcus aureus incubated for 18 hrs by serial microdilution method. The class given is functional. For orientation: Broth dilution looks for growth in wells or tubes with falling amounts of substance.
In data set [2] the test system is Staphylococcus aureus. The experiment in a line: Antimicrobial activity against methicillin-resistant Staphylococcus aureus incubated for 18 hrs by serial microdilution method. Type of data set: functional.
The test system of data set [3] is Staphylococcus aureus. Nature of the data set: Antimicrobial activity against Staphylococcus aureus ATCC 6538 incubated for 18 hrs by serial microdilution method. The class given is functional. The settings on record: ATCC 6538, 18 h.
Data set [4] deals with Enterococcus faecalis. Nature of the data set: Antimicrobial activity against Enterococcus faecalis ATCC 29212 incubated for 18 hrs by serial microdilution method. The settings on record: ATCC 29212, 18 h. Type of data set: functional.
Data set [5] can be described thus: Lipophilicity, log P of the compound in octanol and water incubated for 1 h under shaking condition. The class given is physicochemical.
The nature of data set [6]: Solubility of the compound in water at pH 7 by UV-vis spectrophotometric analysis. Type of data set: physicochemical.
Data set [7] deals with Staphylococcus epidermidis. Nature of the data set: Antimicrobial activity against Staphylococcus epidermidis ATCC 12228 incubated for 18 hrs by serial microdilution method. The class given is functional. The settings on record: ATCC 12228, 18 h.
The test system of data set [8] is Staphylococcus epidermidis. The experiment in a line: Antimicrobial activity against Staphylococcus epidermidis ATCC 49134 incubated for 18 hrs by serial microdilution method. The class given is functional. The settings on record: ATCC 49134, 18 h.
For data set [9], the system named is Escherichia coli. The experiment in a line: Antimicrobial activity against Escherichia coli ATCC 25922 incubated for 18 hrs by serial microdilution method. Type of data set: functional. The settings on record: ATCC 25922, 18 h.

On to `CO[C@H]1/C=C/O[C@@]2(C)Oc3c(C)c(O)c4c(O)c(c(CN5CCN(Cc6ccc(F)cc6)CC5)c(O)c4c3C2=O)NC(=O)/C(C)=C\C=C\[C@H](C)[C@H](O)[C@@H](C)[C@@H](O)[C@@H](C)[C@H](OC(C)=O)[C@@H]1C`, for which the MIC in [1] is 0.25 µg/mL (≈ 0.277 µM); in data set [2] it was 1 µg/mL (≈ 1.11 µM); in data set [3], 1 µg/mL (≈ 1.11 µM); in data set [4] it was 8 µg/mL (≈ 8.85 µM); in data set [7], 0.25 µg/mL (≈ 0.277 µM); in data set [8], 0.25 µg/mL (≈ 0.277 µM). In data set [9], this compound had an MIC of over 8 µg/mL. Moreover, the logP at 1 h in [5] came out at 3.31. The same compound yielded a solubility in [6] of under 50 µg/mL.

For the compound `CO[C@H]1/C=C/O[C@@]2(C)Oc3c(C)c(O)c4c(O)c(c(CNCC(=O)N5CCCCC5)c(O)c4c3C2=O)NC(=O)/C(C)=C\C=C\[C@H](C)[C@H](O)[C@@H](C)[C@@H](O)[C@@H](C)[C@H](OC(C)=O)[C@@H]1C`, the minimum inhibitory concentration (MIC) is 1 µg/mL (≈ 1.17 µM) in data set [1]; 1 µg/mL (≈ 1.17 µM) in data set [2]; 1 µg/mL (≈ 1.17 µM) in [3]; over 8 µg/mL in data set [4]; 0.5 µg/mL (≈ 0.587 µM) in data set [7]; 0.25 µg/mL (≈ 0.293 µM) in data set [8]. In [9], the MIC was over 8 µg/mL. Moreover, the logP at 1 h in [5] was found to be 1.35. In data set [6], this compound had a solubility of 120 µg/mL (≈ 141 µM).

As to `CO[C@H]1/C=C/O[C@@]2(C)Oc3c(C)c(O)c4c(O)c(c(CN5CCN(C)CC5)c(O)c4c3C2=O)NC(=O)/C(C)=C\C=C\[C@H](C)[C@H](O)[C@@H](C)[C@@H](O)[C@@H](C)[C@H](OC(C)=O)[C@@H]1C`, the MIC in [1] is 1 µg/mL (≈ 1.23 µM); in data set [2], 0.5 µg/mL (≈ 0.617 µM); in data set [3], 0.5 µg/mL (≈ 0.617 µM); in [4], over 8 µg/mL; in [7], 0.25 µg/mL (≈ 0.309 µM); in data set [8], 0.25 µg/mL (≈ 0.309 µM). The MIC in data set [9] is over 8 µg/mL. Besides, in [5], the logP at 1 h is 1.76. Also, the solubility in data set [6] came to 100 µg/mL (≈ 123 µM).

`CO[C@H]1/C=C/O[C@@]2(C)Oc3c(C)c(O)c4c(O)c(c(CNC56CC7CC(CC(C7)C5)C6)c(O)c4c3C2=O)NC(=O)/C(C)=C\C=C\[C@H](C)[C@H](O)[C@@H](C)[C@@H](O)[C@@H](C)[C@H](OC(C)=O)[C@@H]1C`: the minimum inhibitory concentration (MIC) came out at 0.5 µg/mL (≈ 0.581 µM) in data set [1]; 0.5 µg/mL (≈ 0.581 µM) in data set [2]; 0.5 µg/mL (≈ 0.581 µM) in [3]; 1 µg/mL (≈ 1.16 µM) in data set [4]; 4 µg/mL (≈ 4.65 µM) in data set [7]; 2 µg/mL (≈ 2.32 µM) in data set [8]. The compound further came in with an MIC in [9] of over 8 µg/mL. For the same compound, in [5], the logP at 1 h stood at 1.91. This compound also had a solubility in data set [6] of under 50 µg/mL.

Regarding `CO[C@H]1/C=C/O[C@@]2(C)Oc3c(C)c(O)c4c(O)c(c(/C=N/N5CCCC5)c(O)c4c3C2=O)NC(=O)/C(C)=C\C=C\[C@H](C)[C@H](O)[C@@H](C)[C@@H](O)[C@@H](C)[C@H](OC(C)=O)[C@@H]1C`, the MIC in [1] came to 0.5 µg/mL (≈ 0.63 µM); in [2], 0.25 µg/mL (≈ 0.315 µM); in [3], 0.25 µg/mL (≈ 0.315 µM); in data set [4], 4 µg/mL (≈ 5.04 µM); in data set [7] it was 0.25 µg/mL (≈ 0.315 µM); in data set [8], 0.25 µg/mL (≈ 0.315 µM). The same compound yielded an MIC in data set [9] of over 8 µg/mL. The same compound gave a logP at 1 h in [5] of 3.13. The same compound came in with a solubility in data set [6] of under 300 µg/mL.

With `CO[C@H]1/C=C/O[C@@]2(C)Oc3c(C)c(O)c4c(O)c(c5c(nc6cc(C)ccn65)c4c3C2=O)NC(=O)/C(C)=C\C=C\[C@H](C)[C@H](O)[C@@H](C)[C@@H](O)[C@@H](C)[C@H](OC(C)=O)[C@@H]1C` [RIFAXIMIN], the MIC in [1] amounted to 0.125 µg/mL (≈ 0.159 µM); in [2] it was 0.0625 µg/mL (≈ 0.0795 µM); in data set [3], 0.0625 µg/mL (≈ 0.0795 µM); in data set [4] it was 8 µg/mL (≈ 10.2 µM); in [7], 0.0312 µg/mL (≈ 0.0398 µM); in [8], 0.0312 µg/mL (≈ 0.0398 µM). In [9], this compound came in with a minimum inhibitory concentration (MIC) of over 8 µg/mL.

Turning to `CO[C@H]1/C=C/O[C@@]2(C)Oc3c(C)c(O)c4c(O)c(c(CN5CCN(c6ccncc6)CC5)c(O)c4c3C2=O)NC(=O)/C(C)=C\C=C\[C@H](C)[C@H](O)[C@@H](C)[C@@H](O)[C@@H](C)[C@H](OC(C)=O)[C@@H]1C`, the MIC was 2 µg/mL (≈ 2.29 µM) in data set [1]; 2 µg/mL (≈ 2.29 µM) in data set [2]; 2 µg/mL (≈ 2.29 µM) in [3]; over 8 µg/mL in [4]; 0.5 µg/mL (≈ 0.573 µM) in [7]; 0.5 µg/mL (≈ 0.573 µM) in data set [8]. In data set [9], this compound showed an MIC of over 8 µg/mL. Moreover, in data set [5], the logP at 1 h came out at 2.06. Further, the solubility in data set [6] was under 50 µg/mL.

As for `CO[C@H]1/C=C/O[C@@]2(C)Oc3c(C)c(O)c4c(O)c(c(CNC5CCN(CC(=O)O)CC5)c(O)c4c3C2=O)NC(=O)/C(C)=C\C=C\[C@H](C)[C@H](O)[C@@H](C)[C@@H](O)[C@@H](C)[C@H](OC(C)=O)[C@@H]1C`, the MIC is 0.5 µg/mL (≈ 0.576 µM) in data set [1]; 0.25 µg/mL (≈ 0.288 µM) in data set [2]; 0.25 µg/mL (≈ 0.288 µM) in data set [3]; over 8 µg/mL in [4]; 0.0625 µg/mL (≈ 0.072 µM) in [7]; 0.0625 µg/mL (≈ 0.072 µM) in [8]. The compound also had a minimal inhibitory concentration (MIC) in data set [9] of over 8 µg/mL. Further, in [5], the logP at 1 h is -1.5. In data set [6], this compound gave a solubility of over 100000 µg/mL.
